# Source: US9580398B2, “Compounds, compositions, and methods for modulating ferroptosis and treating excitotoxic disorders” (The Trustees of Columbia University in the City of New York, priority 2012, dated 2017)
# How the values were obtained:
# [1] = test system: rat organotypic hippocampal slice culture (OHSC); assay: Glutamate-induced excitotoxic cell death in organotypic hippocampal slice cultures (PI uptake); assay type: cell-based; conditions: 5 mM L-glutamate 3 hours; 24 hours after; DG, CA1, CA3; Fer-1 2 μM, CPX 5 μM, MK-801 10 μM
# Protocol: OHSCs were cultured as previously described (Morrison et al., 2002) with approval from Columbia University's Institutional Animal Care and Use Committee (IACUC). Briefly, Sprague Dawley rat pups (P8-P10) were rapidly decapitated, and the hippocampus placed in ice-cold Gey's balanced salt solution (Sigma). 400 μm thick sections were cut using a Mcllwain tissue chopper and immediately plated on Millicell cell culture inserts (Millipore, Billerica, Mass.) in Neurobasal (Invitrogen) media supplemented with B27 (1×, Invitrogen), GlutaMAX (1 mM, Invitrogen), and D-glucose (4.5 mg/mL, Sigma) at 37° C. and 5% CO2. After 2 days in vitro (DIV), the media was changed to medium containing serum comprised of 50% DMEM (Sigma), 25% heat-inactivated horse serum (Sigma), 25% Hank's balanced salt solution (Sigma), GlutaMAX (1 mM, Invitrogen), and D-glucose (4.5 mg/mL, Sigma). Medium was changed every 2-3 days.
# After 10-14 DIV, OBSCs were exposed to an excitotoxic injury consisting of a 3 hour exposure to 5 mM L-glutamate in SFM (Morrison et al., 2002). Only healthy OHSCs defined as those with less than 5% cell death in all regions of the hippocampus (DG, CA3, CA1) pre-injury were used for experiments. After the 3 hour exposure, the cultures were placed in fresh serum free media (SFM) containing 75% DMEM, 25% Hank's balanced salt solution, GlutaMAX (1 mM), D-glucose (4.5 mg/mL) until cell death was quantified at 24 hours. If drugs were added, they were added at the same time as glutamate.
# Quantification of cell death has been described previously (Cater et al., 2007; Morrison et al., 2002). Brightfield images of the hippocampal cultures were taken before injury for identification of regions of interest (ROI) including the dentate gyrus (DG), CA3 and CA1. Propidium iodide (PI, Invitrogen) was used as a fluorescent signal for cell death, and images were taken before the induction of injury and 24 hours following injury. […] Percentage cell death was expressed as the number of pixels in the ROI above a threshold in the PI fluorescent image divided by the total number of pixels in the ROI.
# system xc− = biological target: T1, system xc− (Homo sapiens, UniProt Q9UPY5); assay: [14C]cystine uptake assay (Na+-independent); assay type: cell-based; conditions: HT-1080 cells; erastin 10 μM, glutamate 50 mM, SAS 1 mM
# T1 construct: endogenous in cells; host or cells: HT-1080 (American Type Culture Collection)
# T1 sequence (Q9UPY5 1-501): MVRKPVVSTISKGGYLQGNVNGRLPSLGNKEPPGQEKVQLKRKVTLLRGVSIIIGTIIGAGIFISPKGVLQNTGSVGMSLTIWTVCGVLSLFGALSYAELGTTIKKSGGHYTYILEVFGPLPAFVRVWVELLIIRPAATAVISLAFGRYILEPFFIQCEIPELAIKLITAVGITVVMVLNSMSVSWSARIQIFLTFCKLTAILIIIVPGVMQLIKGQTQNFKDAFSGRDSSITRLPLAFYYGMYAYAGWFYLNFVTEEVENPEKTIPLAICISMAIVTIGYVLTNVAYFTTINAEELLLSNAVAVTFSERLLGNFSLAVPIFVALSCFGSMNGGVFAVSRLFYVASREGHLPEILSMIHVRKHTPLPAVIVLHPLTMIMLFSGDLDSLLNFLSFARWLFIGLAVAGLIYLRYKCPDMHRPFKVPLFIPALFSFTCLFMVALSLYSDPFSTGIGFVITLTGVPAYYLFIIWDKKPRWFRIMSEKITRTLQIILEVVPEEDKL
# T1 sequence (P08195 1-529 partner): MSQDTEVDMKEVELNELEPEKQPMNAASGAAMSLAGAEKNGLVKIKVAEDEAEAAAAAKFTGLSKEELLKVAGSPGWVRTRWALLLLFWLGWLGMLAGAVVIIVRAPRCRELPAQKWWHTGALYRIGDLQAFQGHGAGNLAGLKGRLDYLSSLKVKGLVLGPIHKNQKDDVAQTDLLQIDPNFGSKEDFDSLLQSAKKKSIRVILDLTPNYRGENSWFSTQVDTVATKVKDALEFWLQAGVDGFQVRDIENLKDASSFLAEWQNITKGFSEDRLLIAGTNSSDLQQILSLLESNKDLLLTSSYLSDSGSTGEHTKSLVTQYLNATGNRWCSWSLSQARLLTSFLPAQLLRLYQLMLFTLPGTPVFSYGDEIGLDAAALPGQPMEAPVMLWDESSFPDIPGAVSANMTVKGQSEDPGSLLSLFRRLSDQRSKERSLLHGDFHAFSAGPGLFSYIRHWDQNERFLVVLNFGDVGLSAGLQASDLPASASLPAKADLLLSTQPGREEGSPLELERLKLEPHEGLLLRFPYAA
# Protocol: 200,000 HT-1080 cells/well were seeded overnight in 6-well dishes (Corning). […] At this point, in each well the buffer was replaced with 600 μL uptake buffer containing compound and 0.12 μCi (80-110 mCi/mmol) of L-[3,3′-^14C]-cystine (Perkin Elmer) and incubated for 3 minutes at 37° C. Cells were then washed three times with ice-cold uptake buffer and lysed in 500 μL 0.1 M NaOH. To this lysate was added 15 mL of scintillation fluid and radioactive counts per minute were obtained using a scintillation counter. All measurements were performed in triplicate for each condition.
# Calu-1 cells = assay: Erastin-induced ferroptosis in Calu-1 cells with NOX pathway inhibitors; assay type: cell-based, human
# Protocol: (§1) Cell viability was typically assessed in 384-well format by Alamar Blue (Invitrogen) fluorescence (ex/em 530/590) measured on a Victor3 platereader (Perkin Elmer, Waltham, Mass.). In some experiments, Trypan Blue dye exclusion counting was performed using an automated cell counter (ViCell, Beckman-Coulter Inc., Brea, Calif.). Cell viability in test conditions is reported as a percentage relative to the negative control treatment.
# HT-1080 cells = assay: Erastin-induced death in HT-1080 cells with co-treated inhibitors (viability, microscopy); assay type: cell-based, human; conditions: HT-1080 cells
# Protocol: as §1
# Phase contrast images were acquired using an AMG EVOS FL (Advanced Microscopy Group) microscope equipped with a 10× phase-contrast objective. Three independent fields were acquired for each experimental condition. Representative samples from one field of view are shown.
# [2] = test system: SLC7A11 mRNA in HT-1080 cells; assay: SLC7A11 mRNA levels by RT-qPCR; assay type: cell-based, human
# Protocol: RNA was extracted using the Qiashredder and Qiagen RNeasy Mini kits (Qiagen) according to the manufacturer's protocol. 2 μg total RNA for each sample was used as input for each reverse transcription reaction, performed using the TaqMan RT kit (Applied Biosystems, Life Technologies Corp., Carlsbad, Calif.). Primer pairs were designed for target transcripts using Primer Express 2.0 (Applied Biosystems). Quantitative PCR reactions were performed using the Power SYBR Green PCR Master Mix (Applied Biosystems). Triplicate samples per condition were analyzed on an Applied Biosystems 7300 qPCR instrument using absolute quantification settings. Differences in mRNA levels compared to HPRT1 or ACTB internal reference control were computed between control and experimental conditions using the ΔΔCt method.
# BJeLR cells = assay: Erastin-induced death and ROS production in BJeLR cells; assay type: cell-based, human; conditions: erastin 10 μM, 6-AN 200 μM
# Protocol: The day before the experiment, 200,000 cells/well were seeded in 6-well dishes (Corning Inc., Corning, N.Y.). The day of the experiment, cells were treated with test compounds for the indicated times, then harvested by trypsinization, resuspended in 500 μL Hanks Balanced Salt Solution (HBSS, Gibco, Invitrogen Corp., Carlsbad, Calif.) containing either H2DCFDA (25 μM), C11-BODIPY(581/591) (2 μM) or MitoSOX (5 μM) (all from Molecular Probes, Invitrogen) and incubated for 10 minutes at 37° C. in a tissue culture incubator. Cells were then resuspended in 500 μL of fresh HBSS, strained through a […] cell strainer (BD Falcon, BD Biosciences, San Jose, Calif.), and analyzed using a flow cytometer (FACSCalibur or Accuri C6, BD Biosciences), which was equipped with 488-nm laser for excitation. Data was collected from the FL1 (H2DCFDA, C11-BODIPY) or FL2 channel (MitoSOX). A minimum of 10,000 cells were analyzed per condition.
# as §1
# BJeLR and HT-1080 cells = assay: Measurement of ATP levels; assay type: cell-based, human; conditions: normalized to viability
# Protocol: ATP levels were evaluated using the ApoSENSOR ATP Assay Kit (Biovision Inc., Milpitas, Calif.) according to the manufacturer's instructions. 2000 HT-1080 or BJeLR cells were seeded in 96-well white bottom plates (Falcon). Cells were treated 12 hours later with compound as above for the TEM. Prior to luminescence measurement, medium was removed and cells were lysed and incubated with ATP Monitoring Enzyme. Luminescence was measured using a Victor3 platereader equipped with an infrared emission filter every 30 seconds for 10 minutes. Typically the first reading was used for data analysis. Parallel cell culture treatments were performed in 96-well clear bottom plates and cell viability was determined using Alamar Blue. These values were used to normalize ATP levels to cell viability.
SMILES,Na+-independent uptake of [14C]cystine (system xc−),suppression of erastin-induced ferroptosis in Calu-1 (Calu-1 cells),other results
C[C@]12N[C@H](Cc3ccccc31)c1ccccc12 [MK-801],,,glutamate-induced cell death (PI uptake) [1]: attenuated significantly and to an almost identical extent
N[C@@H](CCC(=O)O)C(=O)O [glutamate],abolished,,
"O=C(O)c1cc(/N=N/c2ccc(S(=O)(=O)Nc3ccccn3)cc2)ccc1O [SAS, sulfasalazine]",abolished,,
CN(C)c1cccc(-c2c3c(=O)n(-c4ccccc4Cl)[nH]c3cc(=O)n2C)c1 [GKT137831],,strongly suppressed,
"Cc1cc(C2CCCCC2)n(O)c(=O)c1 [CPX, ciclopirox olamine]",,,glutamate-induced cell death (PI uptake) [1]: attenuated significantly and to an almost identical extent
COC(=O)c1ccc([C@@H]2c3[nH]c4ccccc4c3C[C@@H](C(=O)OC)N2C(=O)CCl)cc1 [RSL3],had no effect,,
"c1ccc2c(c1)[I+]c1ccccc1-2 [DPI, diphenylene iodonium]",,strongly suppressed,
"OCCS [β-ME, β-mercaptoethanol, reference compound]",,,"inhibition of cell death induced by erastin, SAS and glutamate (HT-1080 cells): strongly inhibited cell death; effect on erastin/SAS-induced SLC7A11 upregulation [2]: suppressed"
"NC(=O)c1ccc(N)nc1 [6-AN, 6-aminonicotinamde]",,strongly suppressed,cell death and ROS production in erastin-treated BJeLR (BJeLR cells): prevented cell death as well as ROS production
OO [H2O2],,,intracellular ATP (BJeLR and HT-1080 cells): substantial depletion of intracellular ATP
